In the OligoGym collection:
Oligonucleotides are written 5' to 3', each unit as a sugar letter and its base; * is a phosphorothioate linkage, no mark a phosphodiester; rarer units and linkages stand in square brackets, end groups in braces. Plain capitals give the bases only. d = 2'-deoxy (DNA); r = 2'-OH (RNA)

Target: UBE2W
Test: reporter assay of Huesken 2005
Settings: siRNA
Also: test concentration or dose not given here.

Question: Which normalised inhibition (eCFP-eYFP dual reporter) does the source give for “sense rCrArUrUrArUrUrArGrCrArUrGrCrUrUrUrCrCdTdT / antisense rGrGrArArArGrCrArUrGrCrUrArArUrArArUrGdCdT” here?
Answer: Its normalised inhibition (eCFP-eYFP dual reporter) is 93.2%.

Question: Which normalised inhibition (eCFP-eYFP dual reporter) does the source give for “sense rCrCrArArArGrArArArArCrArArArArUrGrGrUdTdT / antisense rArCrCrArUrUrUrUrGrUrUrUrUrCrUrUrUrGrGdAdT” here?
Answer: Its normalised inhibition (eCFP-eYFP dual reporter) is 101%.

Question: “sense rCrCrUrCrCrUrGrGrArArUrGrArCrCrUrUrArAdTdT / antisense rUrUrArArGrGrUrCrArUrUrCrCrArGrGrArGrGdTdG” was tested. Which normalised inhibition (eCFP-eYFP dual reporter) did it give?
Answer: The normalised inhibition (eCFP-eYFP dual reporter) was 99.3%.

Question: How did the normalised inhibition (eCFP-eYFP dual reporter) turn out when “sense rCrGrArUrArUrCrCrUrUrUrUrGrArCrUrCrUrCdTdT / antisense rGrArGrArGrUrCrArArArArGrGrArUrArUrCrGdAdC” was run?
Answer: Its normalised inhibition (eCFP-eYFP dual reporter) is 85.7%.

Question: Which normalised inhibition (eCFP-eYFP dual reporter) does the source give for “sense rCrUrArUrUrUrArArArUrUrUrArGrUrArGrUrCdTdT / antisense rGrArCrUrArCrUrArArArUrUrUrArArArUrArGdAdA” here?
Answer: The normalised inhibition (eCFP-eYFP dual reporter) was 83.5%.

Question: Which normalised inhibition (eCFP-eYFP dual reporter) does the source give for “sense rCrUrCrCrUrGrGrArArUrGrArCrCrUrUrArArAdTdT / antisense rUrUrUrArArGrGrUrCrArUrUrCrCrArGrGrArGdGdT” here?
Answer: The normalised inhibition (eCFP-eYFP dual reporter) was 100%.

Question: Which normalised inhibition (eCFP-eYFP dual reporter) does the source give for “sense rCrUrGrGrUrGrArArArArUrArUrUrCrCrUrGrUdTdT / antisense rArCrArGrGrArArUrArUrUrUrUrCrArCrCrArGdTdA” here?
Answer: The normalised inhibition (eCFP-eYFP dual reporter) was 108%.

Question: Which normalised inhibition (eCFP-eYFP dual reporter) does the source give for “sense rCrUrGrUrUrCrArUrCrCrUrCrArUrGrUrUrUrAdTdT / antisense rUrArArArCrArUrGrArGrGrArUrGrArArCrArGdGdA” here?
Answer: Its normalised inhibition (eCFP-eYFP dual reporter) is 113%.

Question: How did the normalised inhibition (eCFP-eYFP dual reporter) turn out when “sense rCrUrUrUrCrCrArGrCrUrGrCrArArGrGrArArAdTdT / antisense rUrUrUrCrCrUrUrGrCrArGrCrUrGrGrArArArGdCdA” was run?
Answer: The normalised inhibition (eCFP-eYFP dual reporter) was 103%.

Question: For “sense rGrArArGrArCrUrGrGrUrCrCrCrCrArGrCrGrCdTdT / antisense rGrCrGrCrUrGrGrGrGrArCrCrArGrUrCrUrUrCdTdG”, which normalised inhibition (eCFP-eYFP dual reporter) is on record?
Answer: Its normalised inhibition (eCFP-eYFP dual reporter) is 80.5%.

Question: “sense rGrArCrArUrGrGrArArGrGrUrGrCrArCrCrArGdTdT / antisense rCrUrGrGrUrGrCrArCrCrUrUrCrCrArUrGrUrCdTdA” was tested. Which normalised inhibition (eCFP-eYFP dual reporter) did it give?
Answer: Its normalised inhibition (eCFP-eYFP dual reporter) is 94.9%.

Question: How did the normalised inhibition (eCFP-eYFP dual reporter) turn out when “sense rGrArCrCrArCrCrGrGrArUrArArUrUrCrUrUrUdTdT / antisense rArArArGrArArUrUrArUrCrCrGrGrUrGrGrUrCdGdT” was run?
Answer: The normalised inhibition (eCFP-eYFP dual reporter) was 96.4%.

Question: For “sense rGrArGrArArGrArGrUrGrUrUrCrArArArArUrUdTdT / antisense rArArUrUrUrUrGrArArCrArCrUrCrUrUrCrUrCdAdT”, which normalised inhibition (eCFP-eYFP dual reporter) is on record?
Answer: Its normalised inhibition (eCFP-eYFP dual reporter) is 116%.

Question: How did the normalised inhibition (eCFP-eYFP dual reporter) turn out when “sense rGrCrArArGrGrArArArArGrArGrArCrGrArCrCdTdT / antisense rGrGrUrCrGrUrCrUrCrUrUrUrUrCrCrUrUrGrCdAdG” was run?
Answer: The normalised inhibition (eCFP-eYFP dual reporter) was 112%.

Question: Which normalised inhibition (eCFP-eYFP dual reporter) does the source give for “sense rGrCrGrCrUrCrUrCrArGrUrCrCrArArUrCrArGdTdT / antisense rCrUrGrArUrUrGrGrArCrUrGrArGrArGrCrGrCdTdG” here?
Answer: The normalised inhibition (eCFP-eYFP dual reporter) was 109%.

Question: Which normalised inhibition (eCFP-eYFP dual reporter) does the source give for “sense rGrGrUrCrArUrGrUrUrUrArCrUrGrGrUrGrArAdTdT / antisense rUrUrCrArCrCrArGrUrArArArCrArUrGrArCrCdTdG” here?
Answer: The normalised inhibition (eCFP-eYFP dual reporter) was 103%.

Question: Which normalised inhibition (eCFP-eYFP dual reporter) does the source give for “sense rGrUrGrArArArArUrArUrUrCrCrUrGrUrUrCrAdTdT / antisense rUrGrArArCrArGrGrArArUrArUrUrUrUrCrArCdCdA” here?
Answer: The normalised inhibition (eCFP-eYFP dual reporter) was 82%.

Question: “sense rGrUrGrCrGrArArCrArUrGrUrArArCrArArGrAdTdT / antisense rUrCrUrUrGrUrUrArCrArUrGrUrUrCrGrCrArCdAdT” was tested. Which normalised inhibition (eCFP-eYFP dual reporter) did it give?
Answer: The normalised inhibition (eCFP-eYFP dual reporter) was 125%.

Question: “sense rGrUrUrCrArArArArUrUrCrArArUrUrArCrArCdTdT / antisense rGrUrGrUrArArUrUrGrArArUrUrUrUrGrArArCdAdC” was tested. Which normalised inhibition (eCFP-eYFP dual reporter) did it give?
Answer: The normalised inhibition (eCFP-eYFP dual reporter) was 73.6%.

Question: How did the normalised inhibition (eCFP-eYFP dual reporter) turn out when “sense rGrUrUrCrArUrCrCrUrCrArUrGrUrUrUrArUrAdTdT / antisense rUrArUrArArArCrArUrGrArGrGrArUrGrArArCdAdG” was run?
Answer: The normalised inhibition (eCFP-eYFP dual reporter) was 105%.
